Source: US11759480B2, “Compositions and methods for CAR T cell therapy” (ENDOCYTE, INC., priority 2017, dated 2023)
Read-outs that look alike come from different tables or passages of the source.

Assays:
[1] = system: MDA-MB-231 solid tumor xenografts; assay type: in vivo
Method: MDA-MB-231 cells were subcutaneously injected into the shoulders of NSG mice (Jackson Laboratory) to establish solid tumor xenografts. When tumor volume reached around 50-100 mm^3, anti-FITC CAR T cells (15×10^6 cells) were intravenously introduced into tumor-bearing mice. Twenty NSG mice were divided into four study groups (5 animals in each group). The first group was treated with anti-FITC CAR T cells with phosphate-buffered saline (PBS) as a negative control. The second, third, and fourth groups were treated with anti-FITC CAR T cells with FITC-Folate (500 nmole/kg) every other day. Once a significant toxicity (e.g. serious loss of body weight) was detected, these groups were treated with either: continued FITC-Folate administration (second group); discontinuation of FITC-Folate administration until the mice recovered (third group); or a mixture of 100-fold excess of EC0923 (i.e. free folate) and FITC-Folate until the mice recovered (fourth group). The body weight was measured regularly to monitor toxicity. In addition, the blood concentration of interferon (IFN)-gamma for each treatment group was measured to monitor the degree of anti-FITC CAR T activation. Finally, tumor volume was measured to identify anti-tumor efficacy in each treatment group.

[2] = system: MDA-MB-231; test: EC17 dependent anti-tumor activity, MDA-MB-231 xenograft (Example 26); assay type: in vivo, NSG mice; conditions: 500 nmoles/kg once per week, 5 million CAR-T
Source text: Immunodeficient NSG mice (Jackson Laboratory) were used to show the efficacy of CAR T cell anti-tumor activity with a single dose of EC17 per week. Two folate receptor expressing cancer cell lines were used to establish subcutaneous solid tumor xenografts: MDA-MB-231 has high folate receptor expression, while OV90 has low folate receptor expression. When tumor volume of around 100-250 mm^3 was reached, mice were divided into two groups. Mice in the “EC17 500 nmol/kg” group (nmol/kg is equivalent to nmoles/kg as used in this patent application for the bridge) were injected with 500 nmoles/kg of body weight of EC17, while mice in the “no EC17” group were not injected with EC17. Four hours later, mice in both groups were administered 5 million anti-FITC CAR-T cells. After initial administration of EC17 and CAR-T cells, only mice in the “EC17 500 nmol/kg” group were injected (i.v.) with 500 nmoles/kg of EC17 once per week. Anti-tumor efficacy was monitored by tumor volume.

[3] = system: MDA-MB-231 tumors; test: FITC-CAR-T cell proliferation in vivo versus EC17 dose (Example 36); design: species or system NSG mice
Method: To evaluate whether the bridge dose can control CAR-T proliferation in vivo, NSG mice bearing MDA-MB-231 tumors (250-500 mm3) were divided into 4 groups and dosed with 0, 5, 50, or 500 nmol/kg of body weight of EC17 respectively (as shown in FIG. 40A). Four hours later, the four groups were administered with 5 million FITC-CAR-T cells which were cultured in vitro for 11 days, while one group of mice pre-dosed with 500 nmol/kg EC17 was not dosed with CAR-T cells and was used as a “No CAR-T control”. […] Blood samples were then collected 16 hours post the second EC17 dose and analyzed for CAR-T numbers in blood circulation (FIG. 40B). […] The interpretation of this finding is that CAR-T cells proliferated more in mice dosed with 50 or 500 nmol/kg EC17 than in mice dosed with 5 nmol/kg EC17, so that the CAR-T counts in blood circulation were higher.
To further confirm that FITC-CAR-T proliferation is EC17 dose-dependent, we also evaluated CAR-T proliferation in vivo when CAR-Ts were given more time to settle down and proliferate. For this purpose, we examined CAR-T cell number in mice which were administered with CAR-T cells six days earlier and four doses of EC17 had been given to boost CAR-T proliferation in vivo. NSG mice bearing MDA-MB-231 tumors (250-500 mm3) were divided into 4 groups and dosed with 0, 5, 50, or 500 nmol/kg of body weight of EC17 respectively (as shown in FIG. 41A). Four hours later, all mice were administered with 5 million FITC-CAR-T cells which were cultured in vitro for 18 days. Various levels of EC17 were then dosed at days 1, 3, 5 post CAR-T administering to boost CAR-T proliferation. Mouse blood samples were collected 24 hours post the last EC17 dose, CAR-T cells in blood were stained with anti-human CD45 antibody and counted by FACS.

[4] = system: MDA-MB-231 cells; test: Bridge dose versus lysis and IFNγ release in MDA-MB-231 cell cultures (Example 43); assay type: cell-based, human; conditions: 0.001 to 100,000 nM, Effector:Tumor 5:1
Method: FR positive cancer cell lines (e.g. KB or MDA-MB-231 cells) were seeded at density of 10^4 cells/100 μl media into 96 well plates and grown overnight. Anti-fluorescein CAR T cells were added to each well in the absence or presence of bridge molecules. After co-incubation for 6-24 hours, plates were centrifuged at 350×g for 10 min to remove debris and supernatants were analyzed for lactate dehydrogenase release (cell death analysis) using Pierce™ LDH cytotoxicity assay kit (Thermo Fisher Scientific, MA) and interferon γ (IFNγ) levels using human IFNγ ELISA kit (Biolegend, CA), while pellets were either evaluated for CAR T cell activation by staining with anti-human CD69 APC (Clone: FN50, Biolegend, CA) or examined for CAR T cell proliferation by culturing for 5 days in TexMACS™ medium (Miltenyi Biotech Inc, CA) containing 1% penicillin and streptomycin sulfate and quantitating by flow cytometry using the intrinsic GFP fluorescence and staining with anti-human CD3 APC antibody (Clone:HIT3a, Biolegend, CA).
Although a highly elevated and prolonged CRS can often lead to patient death, some level of CRS has been viewed as desirable, since patients displaying no evidence of CRS are not commonly observed to respond to CAR T cell therapies. […]

Nc1nc2ncc(CNc3ccc(C(=O)NC(CCC(=O)NCCNC(=S)Nc4ccc(-c5c6ccc(=O)cc-6oc6cc(O)ccc56)c(C(=O)O)c4)C(=O)O)cc3)nc2c(=O)[nH]1 (stereo not shown) [EC17, FITC-Folate]
IFN-gamma blood concentration ([1]; break group): decreased
complete response ([1]; break group): 100%
IFN-gamma blood concentration ([1]; continued dose group): a significant amount IFN-gamma was detected
survival of mice at the first week of treatment ([1]; continued dose group): 40%
tumor response ([1]; continued dose group): delay of tumor growth
anti-tumor activity [2]: eliminate MDA-MB-231 tumors
CAR-T cells in blood versus 0 nmol/kg EC17 ([3]; 5 nmol/kg, day 3): less CAR-T cells in their blood circulation
CAR-T cells in blood ([3]; 50 or 500 nmol/kg, day 3): more CAR-T cells in their blood circulation
EC17 dose with the highest CAR-T count ([3]; day 6, four EC17 doses): 50 nmol/kg
bridge dose with little effect on tumor cell lysis [4]: below 0.01 nM
